7 compounds from patent US20230112279A1, “DETERGENT COMPOSITION” (Conopco, Inc., d/b/a UNILEVER, priority 2020, published 2023) can be followed below.

For experiment [1], the target named is T1, Lipex 100 L lipase (Thermomyces lanuginosus, UniProt O59952, N255R/T253R).
T1 construct: purchased Novozymes
Put plainly: Biochemical determination of lipase activity (4-nitrophenyl ester hydrolysis, 405 nm) with Lipex 100 L. Particulars: for Lipex 100L activity in the presence of saponins: 10 ng/mL lipase; for activation of Lipex 100 L: saponin at fixed concentration of 10 μM, FIG. 3; for % increase in Lipase activity in the presence of escin saponin compared to absence of saponin: Lipex 100L. As for the experimental part: (§1) Lipase activity was determined by a colorimetric method using 4-nitrophenyl-valerate (C5) and 4-nitrophenyl-dodecanoate (C12) as substrates. 4-nitrophenyl-dodecanoate (25 mg) or 4-nitrophenyl-valerate (18 mg) were dissolved in 10 mL solvent (methanol) to prepare 8 mM stock solutions. 1 mL of stock solution was added in 7 mL of acidified water (pH 4.5), to give a final concentration of 1 mM (the substrate). In 96-well microtitre plates the following reagents were added: 60 μL dH2O, 80 μL Tris-HCl buffer (pH 8.5, 50 mM), 20 μL of diluted enzyme solution, 20 μL of saponin 10× concentrated stock solution. 20 μL substrate was then added to start the reaction. For zero enzyme controls, enzyme solution was replaced with H2O. Following the addition of substrate, the release of product (4-nitrophenol) was monitored at 405 nm for 15 min at ambient temperature in a Varioskan plate reader.
(§2) The dose response of various lipases to saponins were tested in a biochemical assay. The concentration of lipase in these experiments was 10 μg/L. This level was chosen to ensure that substrate hydrolysis and resultant increase in absorbance measurements falls within the sensitivity of the spectrophotometer. […] In all cases, the lipase activity increased as the escin concentration reached above a threshold value, which varied according to the enzyme in question, but was in the region 0.01 (Resinase HT) to 0.10 μM (Lipex, 100 L, Lipex Evity and Novozyme 51032).
Activation of a single lipase (Lipex 100 L) by a variety of natural saponins and saponins derived through metabolic engineering were tested using the biochemical assay. The unglycosylated terpenoid, oleanolic acid (OA), was also tested to determine whether lipase activation was a result of the terpenoid moiety or required the terpenoid scaffold to be glycosylated. To compare this directly, the enzymes activation by saponins comprising oleanolic acid glycosylated with 3 or 4 glycoside residues at the C28 position of the triterpenoid (oleanolic acid-28-O-triglycoside (OA-28 x3Gly) and oleanolic acid-28-O-tetraglycoside (OA-28 x4Gly), were compared directly to the activation achieved by oleanolic acid.
Biochemical assays measuring lipase activity were initially used in high-throughput microtitre plate format to enable different saponins at different doses to be screened as potential inhibitors of Lipex 100 L lipase (Novozymes). Effective inhibitors are sought to prevent the lipase hydrolytic activity towards the soil release polymer which is typically observed. […] When using 10 ng/mL lipase ([…]) in this case (this level chosen to ensure that substrate hydrolysis and resultant increase in absorbance measurements falls within the sensitivity of the spectrophotometer) the typical saponin concentration required to inhibit the lipase was around 50-125 μM.

In experiment [2] the target is T1, Lipex 100 L lipase. Briefly: Inhibition of Lipex 100 L at fixed dose of 500 μM (Example 7, C12 pNP ester). Particulars: fixed dose of 500 μM; for Lipex 100L lipase activity (inhibitory effect of various saponin derivatives): lipase 10 ng/mL final, 50 mM Tris pH 8.5, 25° C., C12 pNP ester 0.1 mM final, lipase-only control 0.0545; for lipase inhibition: Lipex 100 L 10 ng/mL, C12 pNP ester. The class given is biochemical. As for the experimental part:
as §1
Various saponins were tested for their ability to inhibit Lipex 100 L lipase (10 ng/mL final). A buffer was used (50 mM Tris pH 8.5) and the experiments were carried out at 25° C. At a fixed dose of 500 μM a number of those tested were effective in lowering the lipase activity. The substrate used for testing as C12 pNP ester (0.1 mM final). These included glycosylated derivatives of oleanolic acid, avenacin, tea tree saponin as well as escin (table 4). Orlistat as a known inhibitor of lipase was also included for comparison (table 4).

For experiment [3], the system named is Resinase HT. Briefly: Biochemical determination of lipase activity with Resinase HT. Particulars: lipase 10 μg/L. As for the experimental part: as §1, §2
Experiment [4] deals with Novozym 51032. Briefly: Biochemical determination of lipase activity with Novozym 51032. Particulars: lipase 10 μg/L; for % increase in Lipase activity in the presence of escin saponin compared to absence of saponin: Novozym 51032. As for the experimental part:
as §1, §2

Experiment [5] relates to Lipex Evity. Put plainly: Biochemical determination of lipase activity with Lipex Evity. Particulars: lipase 10 μg/L. As for the experimental part:
as §1, §2

T1 sequence (O59952 23-291 T253R/N255R): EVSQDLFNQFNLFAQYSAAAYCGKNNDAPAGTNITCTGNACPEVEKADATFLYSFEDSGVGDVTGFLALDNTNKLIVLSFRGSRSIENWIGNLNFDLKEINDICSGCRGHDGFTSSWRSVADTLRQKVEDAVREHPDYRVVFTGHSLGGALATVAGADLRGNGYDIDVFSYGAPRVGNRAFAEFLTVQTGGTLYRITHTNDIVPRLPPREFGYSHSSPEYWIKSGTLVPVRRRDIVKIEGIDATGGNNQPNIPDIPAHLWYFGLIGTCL

In the case of `CC1(C)[C@@H](O[C@H]2O[C@H](C(=O)O)[C@@H](O)[C@H](O)[C@H]2O[C@@H]2O[C@H](C(=O)O)[C@@H](O)[C@H](O)[C@H]2O)CC[C@]2(C)[C@H]3C(=O)C=C4[C@@H]5C[C@@](C)(C(=O)O)CC[C@]5(C)CC[C@@]4(C)[C@]3(C)CC[C@@H]12` [Glycyrrhizic acid], the “Lipex 100L activity in the presence of saponins” value (“Lipex 100L activity” for short) in experiment [1] (saponin dose 0.01 μM) is listed as 0.244 Δabs/min @405 nm; in experiment [1] (saponin dose 0.1 μM), 0.252 Δabs/min @405 nm; in experiment [1] (saponin dose 0.5 μM) it was 0.238 Δabs/min @405 nm; in experiment [1] (saponin dose 10 μM) it was 0.221 Δabs/min @405 nm; in experiment [1] (saponin dose 25 μM), 0.171 Δabs/min @405 nm; in experiment [1] (saponin dose 50 μM), 0.135 Δabs/min @405 nm. Further, the “Lipex 100L activity” value in experiment [1] (saponin dose 125 μM) was 0.116 Δabs/min @405 nm; in experiment [1] (saponin dose 250 μM), 0.083 Δabs/min @405 nm; in experiment [1] (saponin dose 500 μM), 0.068 Δabs/min @405 nm.

As for `CC1(C)CC[C@]2(C(=O)O)CC[C@]3(C)C(=CC[C@@H]4[C@@]5(C)CC[C@H](O)C(C)(C)[C@@H]5CC[C@]43C)[C@@H]2C1` [Oleanolic acid, reference compound], in experiment [2], the “Lipex 100L lipase activity (inhibitory effect of various saponin derivatives)” value is given as 0.0842 (±0.0084) abs/min @405 nm. Moreover, the “activation of Lipex 100 L” value in experiment [1] was “small activation”.

With `CCCCCCCCCCC[C@@H](C[C@@H]1OC(=O)[C@H]1CCCCCC)OC(=O)[C@H](CC(C)C)NC=O` [Orlistat, reference compound], in experiment [2], the “Lipex 100L lipase activity (inhibitory effect of various saponin derivatives)” value is listed as −0.00032 (±0.0003) abs/min @405 nm.

As for Avenacin, in experiment [2], the lipase inhibition result is recorded as “complete inhibition” and the “Lipex 100L lipase activity (inhibitory effect of various saponin derivatives)” value was 0.0013 (±0.0006) abs/min @405 nm.

For Escin, the “threshold escin concentration above which lipase activity increased” value is around 0.01 µM in experiment [3]; around 0.10 µM in experiment [4] (Novozyme 51032); around 0.10 µM in experiment [5]; around 0.10 µM in experiment [1] (Lipex 100 L, lipase 10 μg/L). The “% increase in Lipase activity in the presence of escin saponin compared to absence of saponin” value (shortened to “% increase in Lipase activity”) turned out to be 70% in experiment [3] (saponin dose 0.01 μM); 60% in experiment [3] (saponin dose 0.1 μM); 170% in experiment [3] (saponin dose 0.5 μM); 210% in experiment [3] (saponin dose 1 μM); 140% in experiment [3] (saponin dose 2.5 μM); 200% in experiment [3] (saponin dose 5 μM). The “% increase in Lipase activity” value in experiment [4] (saponin dose 0.01 μM) was determined as 0%; in experiment [4] (saponin dose 0.1 μM), 50%; in experiment [4] (saponin dose 0.5 μM), 50%; in experiment [4] (saponin dose 1 μM), 50%; in experiment [4] (saponin dose 2.5 μM), 150%; in experiment [4] (saponin dose 5 μM), 250%. Further, the “% increase in Lipase activity” value in experiment [5] (saponin dose 0.01 μM) is 0%; in experiment [5] (saponin dose 0.1 μM), 20%; in experiment [5] (saponin dose 0.5 μM), 120%; in experiment [5] (saponin dose 1 μM) it was 200%; in experiment [5] (saponin dose 2.5 μM), 240%; in experiment [5] (saponin dose 5 μM), 260%. Moreover, the “% increase in Lipase activity” value in experiment [1] (saponin dose 0.01 μM, lipase 10 μg/L) is given as −25%; in experiment [1] (saponin dose 0.1 μM, lipase 10 μg/L), 25%; in experiment [1] (saponin dose 0.5 μM, lipase 10 μg/L), 100%; in experiment [1] (saponin dose 1 μM, lipase 10 μg/L), 450%; in experiment [1] (saponin dose 2.5 μM, lipase 10 μg/L) it was 1650%; in experiment [1] (saponin dose 5 μM, lipase 10 μg/L), 1775%. In experiment [2], the “Lipex 100L lipase activity (inhibitory effect of various saponin derivatives)” value was 0.0039 (±0.0027) abs/min @405 nm. For the same compound, the “ability to decrease lipase activity (in words)” value in experiment [1] (Lipex 100 L, Table 2 screen) was “decrease lipase activity to negligible levels”. Further, the “Lipex 100L activity” value is on record as 0.257 Δabs/min @405 nm in experiment [1] (saponin dose 0.01 μM); 0.241 Δabs/min @405 nm in experiment [1] (saponin dose 0.1 μM); 0.247 Δabs/min @405 nm in experiment [1] (saponin dose 0.5 μM); 0.200 Δabs/min @405 nm in experiment [1] (saponin dose 10 μM); 0.204 Δabs/min @405 nm in experiment [1] (saponin dose 25 μM); 0.152 Δabs/min @405 nm in experiment [1] (saponin dose 50 μM). Besides, the figures for the “Lipex 100L activity” value in experiment [1] (saponin dose 125 μM), in experiment [1] (saponin dose 250 μM) and in experiment [1] (saponin dose 500 μM) were 0.006 Δabs/min @405 nm, 0.001 Δabs/min @405 nm and 0.001 Δabs/min @405 nm, respectively.

Take “oleanolic acid-28-O-tetraglycoside [OA-28 x4Gly]”: in experiment [2], the lipase inhibition turned out to be 80% and the “Lipex 100L lipase activity (inhibitory effect of various saponin derivatives)” value is recorded as 0.0109 (±0.0006) abs/min @405 nm.

Consider “oleanolic acid-28-O-triglycoside [OA-28 x3Gly]”, for which, in experiment [2], the lipase inhibition result is “complete inhibition” and the “Lipex 100L lipase activity (inhibitory effect of various saponin derivatives)” value is −0.0011 (±0.0005) abs/min @405 nm. For the same compound, in experiment [1], the “activation of Lipex 100 L” value is “greater than 20 fold”.
